Laboratory results taken from patent publication US4831151A, “Antimicrobial imidazolium derivatives” (Hoffmann-La Roche Inc., priority 1985, dated 1989).
Structures can show the parent of a compound that is named as a salt.

Tests used:
[1] = Acute toxicity, single oral administration to mice; details: mouse, in vivo, p.o.
Method: (§1) The filaricidal activity of the compounds of formula I can be determined, for example, on cotton rats (Sigmodon hispidus) which have been infected with Litomosoides carinii. The infection with L. carinii is transmitted by the blood-sucking mite Bdellonyssus bacoti in which the development of the microfilaria to infectious larvae takes place. The cotton rats are infected by exposing them to bites of infected mites. 14 weeks after the infection groups of 2-4 animals are treated subcutaneously with the compound to be tested. 42 days after treatment with the compound to be tested the experimental animals are dissected, whereby the adult filaria are removed from the pleural cavity. Living and dead or encapsulated worms are separated from one another and weighed. The filaricidal activity is expressed as the percentage proportion of dead macrofilaria per treatment group. The ED90 is then determined by means of […] analysis using the values from different dosage groups. The ED90 is that dosage at which 90% of the worms removed from the pleural cavity are dead. In the following Table there are compiled the results which have been obtained in the previously described test with representative members of the class of compound defined by general formula I. Moreover, the Table contains data concerning the acute toxicity of some of these compounds in mg per kg in the case of single oral administration to mice.

Litomosoides carinii = assay: Filaricidal activity in cotton rats infected with Litomosoides carinii; type: in vivo, Litomosoides carinii in cotton rats (Sigmodon hispidus); details: s.c., treated 14 weeks after infection, dissected 42 days after treatment; for ED90: Litomosoides carinii, sc, 1008 h, read-out: ED90 (dosage at which 90% of the worms removed from the pleural cavity are dead)
Method: as §1

Row | SMILES | LD50 [1] | ED90 (Litomosoides carinii) | ED90 (dosage at which 90% of the worms removed from the pleural cavity are dead) (Litomosoides carinii)
1 | CCc1n(N=Cc2ccc(N(C)C)c3ccccc23)cc[n+]1N=Cc1ccc(N(C)C)c2ccccc12.[Cl-] [1,3-bis[[[4-(dimethylamino)-1-naphthyl]methylidene]amino]-2-ethyl-imidazolium chloride] | 312 to 625 mg/kg | 3 mg/kg | –
2 | Cc1n(N=Cc2ccc(N(C)C)cc2)cc[n+]1N=Cc1ccc(N(C)C)cc1 [drawing 12, 1,3-bis[[p-(dimethylamino)benzylidene]amino]-2-methylimidazolium salts] | 80 to 156 mg/kg | – | 1.6 mg/kg
3 | CCCCc1n(N=Cc2ccc(N(C)C)cc2)cc[n+]1N=Cc1ccc(N(C)C)cc1.[Cl-] [2-butyl-1,3-bis[[p-(dimethylamino)benzylidene]amino]imidazolium chloride] | – | < 0.25 mg/kg | –
4 | CCc1n(N=Cc2ccc(N(C)C)cc2)cc[n+]1N=Cc1ccc(N(C)C)cc1 [1,3-bis[[(p-dimethylamino)benzylidene]amino]-2-ethylimidazolium acetate] | – | 0.25 mg/kg | –
5 | Cc1n(N=Cc2ccc(N(C)C)cc2)cc[n+]1N=Cc1ccc(N(C)C)cc1 [drawing 13, 1,3-bis[[(p-dimethylamino)benzylidene]amino]-2-methylimidazolium acetate] | – | 0.85 mg/kg | –
6 | CCc1n(N=Cc2ccc(N(CC)CC)cc2)cc[n+]1N=Cc1ccc(N(CC)CC)cc1 [1,3-bis[[p-diethylamino)benzylidene]amino]-2-ethyl-imidazolium chloride] | – | 0.75 mg/kg | –
7 | CCc1n(N=Cc2ccc(N(C)C)cc2)cc[n+]1N=Cc1ccc([N+](=O)[O-])cc1 | – | < 1 mg/kg | –
8 | CCCc1n(N=Cc2ccc(N(C)C)cc2)cc[n+]1N=Cc1ccc(N(C)C)cc1.[Cl-] [1,3-bis[[p-(dimethylamino)benzylidene]amino]-2-propyl-imidazolium chloride] | 62.5 to 125 mg/kg | < 0.25 mg/kg | –
9 | CCc1n(N=Cc2ccc(N(C)C)cc2)cc[n+]1N=Cc1ccc(N(C)C)cc1.[Cl-] [1,3-bis[[p-(dimethyl-amino)benzylidene]amino]-2-ethylimidazolium chloride] | 62.5 to 125 mg/kg | 0.4 mg/kg | –
